What is called CC50 is the concentration at which the toxic effect on the cells reaches its halfway point. High values mean lower toxicity to the cells, low ones greater toxicity to the cells. In general, inhibition refers to the drop in the measured response relative to a control, in per cent.

This passage reports CC50 and inhibition results from US9873680B2 (Gilead Sciences, Inc., priority 2014, dated 2018).

A short description of data set [1]: Test B: Cytotoxicity Assay. It counts as cell-based. The note with it: human, uninfected MT-4 cells, CellTiter-Glo. The protocol:
Test B: Cytotoxicity Assay Compound cytotoxicity and the corresponding CC50 values was determined using the same protocol as described in the antiviral assay (Test A) except that uninfected cells were used.
In general terms: In ATP-based viability assays light output follows the ATP content of the culture.

Data set [2] has as its system HIV-IIIb. The data set is described as follows: Test A: Antiviral Assay in MT4 Cells. The note with it: Human immunodeficiency virus 1, MT4, 120 h; 0.2 μM drug concentration; MT-4 cells infected with HIV-IIIb, 5 days; values normalized to 100%; average over time; read-out: % inhibition at 0.2 μM (percent inhibition of virus-induced cell killing). It counts as cell-based, HIV-1. As for the experimental part: Test A: Antiviral Assay in MT4 Cells
MT-4 cells were next mixed with HIV-IIIb at an m.o.i of 0.003 for 1 hour, after which time 35 μL of virus/cell mixture (2000 cells) was immediately added to each well containing 40 μL of diluted compound. The plates were then incubated at 37° C. for 5 days. After 5 days of incubation, 25 μl of 2× concentrated CellTiter-Glo™ Reagent (catalog #G7571, Promega Biosciences, Inc., Madison, Wis.) was added to each well containing MT-4 cells. Cell lysis was carried out by incubating at room temperature for 10 min and then chemiluminescence was read.

Counter-ions that a name gives are not always drawn.

As to `Cn1ccnc1C(C)(C)C#Cc1ccc(-c2ccc(Cl)c3c(NS(C)(=O)=O)nn(C)c23)c([C@H](Cc2cc(F)cc(F)c2)NC(=O)Cn2nc(C(F)F)c3c2C(F)(F)[C@@H]2C[C@H]32)n1` [Compound 92B, N—((S)-1-(3-(4-chloro-1-methyl-3-(methylsulfonamido)-1H-indazol-7-yl)-6-(3-methyl-3-(1-methyl-1H-imidazol-2-yl)but-1-yn-1-yl)pyridin-2-yl)-2-(3,5-difluorophenyl)ethyl)-2-((3bS,4aR)-3-(difluoromethyl)-5,5-difluoro-3b,4,4a,5-tetrahydro-1H-cyclopropa[3,4]cyclopenta[1,2-c]pyrazol-1-yl)acetamide], the CC50 at 5 days in data set [1] worked out at 25.9 µM. For the same compound, the inhibition at 0.2 µM in data set [2] came out at 100%.

`Cn1nc(NS(C)(=O)=O)c2c(Cl)ccc(-c3ccc(C#CC4CCCN4C(=O)CO)nc3[C@H](Cc3cc(F)cc(F)c3)NC(=O)Cn3nc(C(F)(F)F)c4c3C(F)(F)[C@@H]3C[C@H]43)c21` (stereo partly drawn) [Compound 66, N-((1S)-1-(3-(4-chloro-1-methyl-3-(methylsulfonamido)-1H-indazol-7-yl)-6-((1-(2-hydroxyacetyl)pyrrolidin-2-yl)ethynyl)pyridin-2-yl)-2-(3,5-difluorophenyl)ethyl)-2-((3bS,4aR)-5,5-difluoro-3-(trifluoromethyl)-3b,4,4a,5-tetrahydro-1H-cyclopropa[3,4]cyclopenta[1,2-c]pyrazol-1-yl)acetamide]: in data set [1], the CC50 at 5 days was found to be 11.6 µM. Besides, the inhibition at 0.2 µM in data set [2] worked out at 92%.

Take `Cn1nc(NS(C)(=O)=O)c2c(Cl)ccc(-c3ccc(C#CC4(CO)CCCC4)nc3[C@H](Cc3cc(F)cc(F)c3)NC(=O)Cn3nc(C(F)(F)F)c4c3C(F)(F)[C@@H]3C[C@H]43)c21` [Compound 45B, N—((S)-1-(3-(4-chloro-1-methyl-3-(methylsulfonamido)-1H-indazol-7-yl)-6-((1-(hydroxymethyl)cyclopentyl)ethynyl)pyridin-2-yl)-2-(3,5-difluorophenyl)ethyl)-2-((3bS,4aR)-5,5-difluoro-3-(trifluoromethyl)-3b,4,4a,5-tetrahydro-1H-cyclopropa[3,4]cyclopenta[1,2-c]pyrazol-1-yl)acetamide]: it took 7.35 µM to reach half-maximal cytotoxicity in data set [1] (CC50 at 5 days). For the same compound, the inhibition at 0.2 µM in data set [2] was determined as 93%.

Regarding `O=C(Cn1nc(C(F)F)c2c1C(F)(F)CCC2(F)F)N[C@@H](Cc1cc(F)cc(F)c1)c1nc(C#Cc2cncnc2)ccc1-c1ccc2c(c1)C(=O)NC2` [Compound 1J, (S)-2-(3-(difluoromethyl)-4,4,7,7-tetrafluoro-4,5,6,7-tetrahydro-1H-indazol-1-yl)-N-(2-(3,5-difluorophenyl)-1-(3-(3-oxoisoindolin-5-yl)-6-(pyrimidin-5-ylethynyl)pyridin-2-yl)ethyl)acetamidehydrochloride], the CC50 at 5 days in data set [1] is > 53.2 µM. Also, in data set [2], the inhibition at 0.2 µM turned out to be 81%.

In data set [1], `Cn1nc(NS(C)(=O)=O)c2c(Cl)ccc(-c3ccc(C#CC(C)(O)C4CC4)nc3[C@H](Cc3cc(F)cc(F)c3)NC(=O)Cn3nc(C(F)(F)F)c4c3C(F)(F)[C@@H]3C[C@H]43)c21` (stereo partly drawn) [Compound 59, N-((1S)-1-(3-(4-chloro-1-methyl-3-(methylsulfonamido)-1H-indazol-7-yl)-6-(3-cyclopropyl-3-hydroxybut-1-yn-1-yl)pyridin-2-yl)-2-(3,5-difluorophenyl)ethyl)-2-((3bS,4aR)-5,5-difluoro-3-(trifluoromethyl)-3b,4,4a,5-tetrahydro-1H-cyclopropa[3,4]cyclopenta[1,2-c]pyrazol-1-yl)acetamide] gave a CC50 at 5 days of 10.2 µM. Moreover, the inhibition at 0.2 µM in data set [2] amounted to 95%.
